In US11660293B2, “Substituted 2-azabicyclo[3.1.1]heptane and 2-azabicyclo[3.2.1]octane derivatives as orexin receptor antagonists” (Chronos Therapeutics Limited, priority 2017, dated 2023):

Tests used:
[1] = target: human Orexin type 2 receptors (Homo sapiens (Human), UniProt O43614); test: Scintillation Proximity Assay (SPA) binding assay, [3H]EMPA displacement, HEK-hOX2 membranes; conditions: Table 2, [3H]EMPA 2 nM
Protocol: Scintillation Proximity Assay (SPA) Binding Assays
CHO cells stably transfected with human Orexin type 1 receptors (CHO-hOX1) or HEK-293 cells transiently transfected with human Orexin type 2 receptors (HEK-hOX2) were collected after 16 h induction with 5 mM sodium butyrate. The cell pellets were re-suspended, homogenized in 15 mM Tris/HCl pH=7.5, 1 mM EGTA, 0.3 mM EDTA, 2 mM MgCl2, protease inhibitors and centrifuged at 40,000 g (20 min, 4° C.). After re-suspension, homogenization and centrifugation as above, the final pellets were re-suspended in 75 mM Tris/HCl pH=7.5, 1 mM EGTA, 0.3 mM EDTA, 12.5 mM MgCl2, 250 mM Sucrose, protease inhibitors, divided into aliquots and frozen down at −80° C.
CHO-hOX1 cell membranes (6 μg ml^−1) or HEK-hOX2 membranes (8 μg ml^−1) were pre-coupled with 1.0 mg ml^−1 of Wheatgerm Agglutinin-coated Yttrium Silicate (YSi-WGA) SPA beads (Perkin Elmer) in buffer containing 25 mM HEPES pH=7.4, 1 mM CaCl2), 5 mM MgCl2, 0.01% (w/v) BSA, 0.02% (w/v) Pluronic F-127 by shaking at room temperature for 2.5-3 h.
(§1) The binding was performed in a final volume of 200 μl. 100 μl of hOX1 or hOX2 beads-membranes suspension were added to 100 μl of [^3H]SB-674042 or [^3H]EMPA solutions (radioligand concentration 2 nM final in the assay), into the 96-well Isoplates containing the 2 μl/well of compounds to be tested. Nonspecific binding was measured in the presence of 1 μM Almorexant. Assay plates were then incubated at room temperature for 3 h before being counted in a Microbeta scintillation counter (PerkinElmer).
Data were analysed by non-linear regression analysis using XLfit Software.

[2] = target: human Orexin type 1 receptors (Homo sapiens (Human), UniProt O43613); test: Scintillation Proximity Assay (SPA) binding assay, [3H]SB-674042 displacement, CHO-hOX1 membranes; conditions: Table 2, [3H]SB-674042 2 nM
Sequence of human Orexin type 1 receptors (O43613 whole entry): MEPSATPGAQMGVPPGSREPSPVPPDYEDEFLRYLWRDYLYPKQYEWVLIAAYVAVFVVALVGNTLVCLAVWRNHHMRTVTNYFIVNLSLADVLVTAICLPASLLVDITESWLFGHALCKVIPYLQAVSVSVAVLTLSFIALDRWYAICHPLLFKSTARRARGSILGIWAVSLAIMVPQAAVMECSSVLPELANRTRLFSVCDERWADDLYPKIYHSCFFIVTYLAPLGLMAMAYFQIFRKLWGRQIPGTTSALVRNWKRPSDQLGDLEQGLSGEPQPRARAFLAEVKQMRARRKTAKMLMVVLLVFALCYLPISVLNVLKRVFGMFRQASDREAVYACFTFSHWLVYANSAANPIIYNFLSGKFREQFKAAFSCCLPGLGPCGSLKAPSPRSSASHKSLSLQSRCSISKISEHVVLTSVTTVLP
Protocol: as §1, with “Scintillation Proximity Assay (SPA) Binding Assays CHO cells stably transfected with human Orexin type 1 receptors (CHO-hOX1) or HEK-293 cells transiently transfected with human Orexin type 2 receptors (HEK-hOX2) were collected after 16 h induction with 5 mM sodium butyrate. […] The” for “The”, “(PerkinElmer). Data were analysed by non-linear regression analysis using XLfit Software.” for “(PerkinElmer).”

Sequence of human Orexin type 2 receptors (O43614 whole entry): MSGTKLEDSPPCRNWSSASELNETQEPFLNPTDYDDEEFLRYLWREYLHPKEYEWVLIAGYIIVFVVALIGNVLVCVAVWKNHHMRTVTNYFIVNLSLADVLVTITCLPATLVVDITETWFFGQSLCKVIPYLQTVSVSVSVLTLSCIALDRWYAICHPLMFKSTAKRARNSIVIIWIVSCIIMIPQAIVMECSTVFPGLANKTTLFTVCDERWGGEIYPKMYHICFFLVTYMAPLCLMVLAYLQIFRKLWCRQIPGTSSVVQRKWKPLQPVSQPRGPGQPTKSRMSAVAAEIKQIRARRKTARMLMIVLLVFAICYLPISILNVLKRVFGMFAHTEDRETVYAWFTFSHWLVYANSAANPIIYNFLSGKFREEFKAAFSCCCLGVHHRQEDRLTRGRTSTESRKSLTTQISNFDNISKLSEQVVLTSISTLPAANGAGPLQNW

Row | SMILES | OX2 pKi (SPA binding) [1] | OX1 pKi (SPA binding) [2]
1 | Cc1ccc(-c2ncc(C(F)(F)F)cn2)c(C(=O)N2C3CC(C3)[C@@H](C)C2COc2ccc(F)cc2)n1 (mixture of isomers) [Example 133, cis-3-[(4-fluorophenoxy)methyl]-4-methyl-2-{6-methyl-3-[5-(trifluoromethyl)pyrimidin-2-yl]pyridine-2-carbonyl}-2-azabicyclo[3.1.1]heptane] | 6.79 | 7.25
2 | Cc1ccc(-c2ncc(F)cn2)c(C(=O)N2C3CC(C3)[C@@H](C)C2COc2ccc(F)cc2)n1 (mixture of isomers) [Example 134, cis-3-[(4-fluorophenoxy)methyl]-2-[3-(5-fluropyrimidin-2-yl)-6-methylpyridine-2-carbonyl]-4-methyl-2-azabicyclo[3.1.1]heptane] | 7.03 | 7.85
3 | Cc1cnn(-c2ccc(C)nc2C(=O)N2C3CC(C3)[C@@H](C)C2COc2ccc(F)cc2)c1 (mixture of isomers) [Example 135, cis-3-[(4-fluorophenoxy)methyl]-4-methyl-2-[6-methyl-3-(4-methyl-1H-pyrazol-1-yl)pyridine-2-carbonyl]-2-azabicyclo[3.1.1]heptane] | 6.39 | 7.78
4 | Cc1nc(C(=O)N2C3CC(C3)[C@@H](C)C2COc2ccc(F)cc2)c(-c2cnccn2)s1 (mixture of isomers) [Example 136, cis-3-[(4-fluorophenoxy)methyl]-4-methyl-2-[2-methyl-5-(pyrazin-2-yl)-1,3-thiazole-4-carbonyl]-2-azabicyclo[3.1.1]heptane] | 5.92 | 7.26
5 | Cc1cccc(-c2sc(C)nc2C(=O)N2C3CC(C3)[C@@H](C)C2COc2ccc(F)cc2)n1 (mixture of isomers) [Example 137, cis-3-[(4-fluorophenoxy)methyl]-4-methyl-2-[2-methyl-5-(6-methylpyridin-2-yl)-1,3-thiazole-4-carbonyl]-2-azabicyclo[3.1.1]heptane] | 6.34 | 7.97
6 | Cc1cnc(-c2ccc(C)nc2C(=O)N2C3CC(C3)[C@@H](C)C2COc2ccc(F)cc2)nc1 (mixture of isomers) [Example 138, cis-3-[(4-fluorophenoxy)methyl]-4-methyl-2-[6-methyl-3-(5-methylpyrimidin-2-yl)pyridine-2-carbonyl]-2-azabicyclo[3.1.1]heptane] | 7.05 | 8.08
7 | Cc1nc(C(=O)N2C3CC(C3)[C@@H](C)C2COc2ccc(F)cc2)c(-c2cncc(Cl)c2)s1 (mixture of isomers) [Example 139, cis-2-[5-(5-chloropyridin-3-yl)-2-methyl-1,3-thiazole-4-carbonyl]-3-[(4-fluorophenoxy)methyl]-4-methyl-2-azabicyclo[3.1.1]heptane] | 6.18 | 7.85
8 | Cc1nc(C(=O)N2C3CC(C3)[C@@H](C)C2COc2ccc(F)cc2)c(-n2cccn2)s1 (mixture of isomers) [Example 141, cis-3-[(4-fluorophenoxy)methyl]-4-methyl-2-[2-methyl-5-(1H-pyrazol-1-yl)-1,3-thiazole-4-carbonyl]-2-azabicyclo[3.1.1]heptane] | 6.45 | 6.91
9 | C[C@@H]1C2CC(C2)N(C(=O)c2cc(C#N)ccc2-n2nccn2)C1COc1ccc(F)cc1 (mixture of isomers) [Example 142, cis-3-{3-[(4-fluorophenoxy)methyl]-4-methyl-2-azabicyclo[3.1.1]heptane-2-carbonyl}-4-(2H-1,2,3-triazol-2-yl)benzonitrile] | 6.33 | 7
10 | Cc1ccc(-n2ncc(C)n2)c(C(=O)N2C3CC(C3)[C@@H](C)C2COc2ccc(F)cc2)n1 (mixture of isomers) [Example 144, cis-3-[(4-fluorophenoxy)methyl]-4-methyl-2-[6-methyl-3-(4-methyl-2H-1,2,3-triazol-2-yl)pyridine-2-carbonyl]-2-azabicyclo[3.1.1]heptane] | 6.83 | 7.96
